We go through one molecule from article PMC10010340, “The Wnt Pathway Inhibitor RXC004 Blocks Tumor Growth and Reverses Immune Evasion in Wnt Ligand–dependent Cancer Models” (Cancer Research Communications, 2022).

Series [1] concerns cell lines with RNF43 mutations and RSPO3 fusions. As to the kind of experiment: Proliferation, 5 days, ATPLite. In kind it is cell-based, human. Conditions: concentration-series. The method, then: (§1) Cells were treated with a concentration-series of RXC004 for 5 days and proliferation measured using ATPLite 1-Step Reagent (Perkin Elmer #6016731). Data were normalized to DMSO-treated controls and IC50 values determined. Colorectal cell lines used were: WiDR (APC-E853*/T1556fs*3), HCT116 (β-cateninΔSer45; RNF43-R117fs*41), JVE-109 (RNF43-V211fs*47/G659fs*41), SNU-1411 (PRPTK-RSPO-3 fusion). Pancreatic cell lines were: CAPAN-2 (RNF43-R330fs*89), AsPC1 (RNF43-S720*), and HPAF-II (RNF43-E174*). Cell lines were from ATCC, except for SNU-1411 (Korean Cell Line Bank) and cultured for no more than 20 passages. Cells were routinely tested for Mycoplasma by the MycoAlert test (Lonza) and authenticated using short tandem repeat fingerprinting.
For orientation: Cellular ATP, detected with luciferase, serves as a proxy for viable cell number.

The subject of series [2] is cell lines with mutations in downstream Wnt signaling. As to the kind of experiment: Proliferation, 5 days, ATPLite. Type of series: cell-based, human. Conditions: concentration-series. The method, then:
as §1

Series [3] can be described thus: Permeability in Caco-2 cells. In kind it is in vitro ADME. Conditions: human. How it is done: Permeability of RXC004 was assessed in MDR1-MDCKII (Netherlands Cancer Institute) and Caco-2 cells (Merck Life Sciences). RXC004 (10 μmol/L) was added to either apical or basolateral chamber for 2 hours at 37°C, then an aliquot from the opposite side of the monolayer was removed and quantified by LC/MS-MS. Apparent permeability (Papp) was calculated according to standard practice ([20]).
On the technique in general: Caco-2 monolayers are a common model of the intestinal barrier.

Another series is described as follows: In vivo pharmacokinetics. Further details: species or system rat (male Sprague Dawley). Conditions: rat. The method, then: In vivo pharmacokinetics: RXC004 was dosed to male Sprague Dawley rats, male CD1 mice or dog (beagle) by intravenous and oral routes. Bioanalysis of blood and plasma samples was performed by LC/MS-MS using a Waters TQS or TQMS mass spectrometer. Pharmacokinetic information was derived using WinNonlin software (Certara).

Another series has as its system SNU-1411 xenograft. As to the kind of experiment: Xenograft pilot study. In kind it is in vivo, mouse (NOD-SCID). Conditions: SNU-1411, 1.5 mg/kg twice daily oral. The method, then: (§2) The in vivo pilot studies were performed at Axis Bioservices. HPAF-II (5 × 10^6 cells; athymic nude mice), AsPC1 (3 × 10^6 cells; athymic nude mice), and SNU-1411 (1 × 10^7 cells; NOD-SCID mice) were implanted bilaterally, subcutaneously, whereas HCT116 (3 × 10^6 cells; athymic nude mice) were implanted in a single flank. Animals were randomized into the indicated groups and treatment initiated once tumor volumes reached approximately 100–150 mm^3. Dosing was either 1.5 mg/kg twice daily RXC004 for 7–13 days then once daily for the remainder of study (up to 29 days), or 28 days 1.5 mg/kg twice daily RXC004 for HCT116. In these and all other animal studies, unless otherwise specified, RXC004 was dosed orally in 0.5% carboxymethylcellulose + 0.1% Tween-80. For AsPC1, an ascites model, end of study tumor weight (mg) was measured. A total of 12 hours after the final dose, RNA was extracted [GenElute RNA isolation kit (#RTN70, Sigma)] from snap frozen tumor for qRT-PCR expression analysis of Axin2, c-Myc, RNF43, MUC4, and MUC5AC relative to appropriate housekeepers.

The nature of another series: Lipophilicity (logD7.4). In kind it is physicochemical. The method, then:
Lipophilicity (logD7.4): A total of 30 μL of a 20 mmol/L stock solution of RXC004 was added to a vial containing 1.5 mL of pH7.4 phosphate buffer saturated octanol and 1.5 mL of octanol-saturated pH7.4 phosphate buffer, shaken and centrifuged to ensure phase separation. logD7.4 was calculated as the logarithm of the ratio of the concentration of RXC004 (measured by LC-UV in octanol vs. buffer phase).

The subject of series [4] is HPAF-II cells cocultured with human PBMCs. Put plainly: HPAF-II / human PBMC coculture. Type of series: cell-based. Conditions: HPAF-II pretreated 100 nmol/L, 3 days. The method, then:
HPAF-II cells were incubated for 3 days with RXC004 (100 nmol/L) or DMSO control, washed and detached using Accutase and equal number of viable cells (as assessed by Trypan Blue exclusion) per treatment were reseeded in 96-well plates. Frozen human peripheral blood mononuclear cells (PBMC), originally collected by density gradient separation using Histopaque from four healthy donors, were thawed and cultured in complete media. After approximately 40 hours, nonadherent PBMCs were added to coculture with the HPAF-II cells, at a PBMC:HPAF-II ratio of 5:1. T-cell proliferation and cytokine production was stimulated using Immunocult CD3/CD28-tetramer (Stemcell Technologies #10971). For monoculture nonadherent PBMC experiments, T cells were stimulated using Immunocult in the presence or absence of recombinant Wnt3a (Biotechne #5036-WN-010) and/or recombinant Wnt5a (Biotechne #645-WN-010), both at 100 ng/mL. After 5 days, supernatants from monoculture or coculture experiments were removed for analysis, whereas suspension cells were fixed, stained with anti-Ki67 (BD #563462), anti-CD4 (BioLegend #317420), and anti-CD8 (BD #564116) antibodies, before flow cytometry was performed on a Novocyte flow cytometer. Cytokines and chemokines in the supernatant were quantified using a 30-plex panel on Magpix (Thermo Fisher Scientific #LHC6003M) or ELISA for IFNγ (R&D Systems # DY285B-05).

For the next series, the system named is AsPC1 xenograft. As to the kind of experiment: Xenograft pilot study. Conditions: AsPC1, 1.5 mg/kg twice daily oral. Type of series: in vivo, mouse (athymic nude). How it is done: as §2
In the next series the test system is HPAF-II xenograft. Put plainly: Xenograft pilot study. Conditions: 1.5 mg/kg twice daily oral. In kind it is in vivo, mouse (athymic nude). How it is done: as §2
A further series has as its system HCT116 xenograft. As to the kind of experiment: Xenograft pilot study. Type of series: in vivo, mouse (athymic nude). Conditions: HCT116, 1.5 mg/kg twice daily oral, 28 days. The method, then: as §2
The mark [5] stands for this setting: male, Sprague Dawley, in vivo, po, 5 mg/kg p.o.

The structures appear in SMILES notation.

In the case of `Cc1c(-c2ccnc(C(F)(F)F)c2)ncn1CC(=O)Nc1ccc(-c2cnccn2)cn1` [RXC004, 2-[5-methyl-4-[2-(trifluoromethyl)-4-pyridyl]imidazol-1-yl]-N-(5-pyrazin-2-yl-2-pyridyl)acetamide], the proliferation entry in series [1] is reported as “inhibited proliferation”. In addition, in series [2], the proliferation result is given as “had no effect”. Also, the Papp A→B at 2 h, 10 μmol/L in series [3] (apical to basolateral, read-out: Caco-2 PappA-B) was 23.6 ×10⁻⁶ cm/s. Moreover, the Papp B→A at 2 h, 10 μmol/L in series [3] (basolateral to apical, read-out: Caco-2 PappB-A) turned out to be 21.8 ×10⁻⁶ cm/s. This molecule also showed a clearance in the series “In vivo pharmacokinetics” (male, Sprague Dawley, in vivo, intravenous, 2 mg/kg, dose i.v./p.o. 2/5 mg/kg) of 5.8 mL/min/kg. Further, the Vd in “In vivo pharmacokinetics” (male, Sprague Dawley, in vivo, intravenous, 2 mg/kg, dose i.v./p.o. 2/5 mg/kg, read-out: Vss) was determined as 0.64 L/kg. Besides, in the series “In vivo pharmacokinetics” (setting [5]), the area under the curve AUC(0-inf) (in general, the area under the concentration-time curve extrapolated to infinity) stood at 10.5 µM·h and the Cmax – broadly, the peak of the concentration-time curve – came out at 3600 nM. Further, in the series “In vivo pharmacokinetics” (male, Sprague Dawley, in vivo, po, 5 mg/kg p.o., read-out: C24h (p.o.)), the concentration at 24 h came out at 9 nM. Also, in the series “In vivo pharmacokinetics” (male, Sprague Dawley, in vivo, dose i.v./p.o. 2/5 mg/kg, read-out: T½ (converted)), the half-life was 2.5 h. The “F (p.o.)” value in the series “In vivo pharmacokinetics” (dose i.v./p.o. 2/5 mg/kg) is listed as 31%. Besides, in the series with SNU-1411 xenograft, the “Wnt-responsive gene expression in tumor including c-Myc” value (“Wnt-responsive gene expression” for short) was “inhibition of Wnt-responsive gene expression” and the tumor growth result is given as “reduction in tumor growth”. Further, in the series “Lipophilicity (logD7.4)” (octanol/phosphate buffer, pH 7.4, pH 7.4, octanol/phosphate buffer, read-out: Measured log D7.4), the logD worked out at 2.4. The “Measured log D7.4” value in the series “Lipophilicity (logD7.4)” (pH 7.4, octanol/phosphate buffer) was 2.44. Besides, in series [4], the “HPAF-II inhibition of T-cell proliferation and IFNγ/GMCSF release” value is “fully reversed”; the “release of CXCL9” value is “potentiated the HPAF-II–dependent release of the chemokine CXCL9”; the “secretion of VEGF” value is “reducing the HPAF-II–dependent secretion of the angiogenesis promoting growth factor VEGF”. Further, in the series with AsPC1 xenograft, the “Wnt-responsive gene expression” value is listed as “inhibition of Wnt-responsive gene expression” and the “tumor growth (tumor weight)” value was “reduction in tumor growth”. Moreover, in the series on HPAF-II xenograft, the “Wnt-responsive gene expression” value is recorded as “inhibition of Wnt-responsive gene expression” and the tumor growth result was “reduction in tumor growth”. Also, the tumor growth result in the series with HCT116 xenograft was “No effect”.
